Source: patent US5087620A, “Controlled dermal penetration enhancement using imidazoles” (Bristol-Myers Squibb Co., priority 1990, dated 1992)

How the values were obtained:
volar forearms [1] = test: Vasoconstriction (skin blanching) assay, double-blind within subject study (Example 2); assay type: in vivo, human; conditions: inclusion of dermal penetration controlling amount of SNO3, PG and IPM
Method: (§1) Equal amounts of each coded test medication (approximately 10 mg) were applied to 2cm^2 sites on the volar forearms and left in place, unoccluded, for 8 hours. Vasoconstriction was assessed by grading the degree of blanching on a 4-point scale (none, mild, moderate, marked) at each test site at 4, 8, 10, 12 and 24 hours after application. Statistical analysis of the area under the curve (AUC) was conducted by ranking the AUC scores within each subject and performing an analysis of variance on the ranks (Friedman Test).

forearms of humans = conditions: general rule; depends on vehicle and concentration; cited from earlier work
volar forearms [2] = test: Vasoconstriction assay of Examples 3, 4 and 5 versus DIPROSONE and KENALOG (Example 6); assay type: in vivo, human
Method: as §1

[3] = In vitro skin penetration study, excised human skin, Franz diffusion cells (Example 1A-1C); assay type: in vitro ADME
Method: Normal excised human skin samples obtained from breast reduction were used. Appropriate size specimens were frozen on the microtome with carbon dioxide and sectioned to a layer around 200 micrometers thick and stored in normal saline at 5° C. The skin sections were mounted on 9 mm inside diameter flat-top Franz diffusion cells. The diffusional cross-sectional area of the skin was 0.636 cm^2. A 50 microliter sample of a test formulation was placed on the skin in the donor compartment and the receiver compartment was filled with about 5 ml of normal saline (with pH adjusted to 4 with citric acid) and was well stirred. Water at 37.4° C. was circulated throughout the water jacket of the diffusion cell. A 100 microliter sample was withdrawn from the receiver compartment at appropriate intervals and analyzed for drug content by HPLC. The receptor fluid was replenished with normal saline after each withdrawal. All the receptor fluid and replenished fluid were thoroughly degassed before use.

SMILES | topical potency class (vasoconstriction assay) (forearms of humans) | further results
CC1(C)O[C@@H]2C[C@H]3[C@@H]4CCC5=CC(=O)C=C[C@]5(C)[C@@]4(F)[C@@H](O)C[C@]3(C)[C@]2(C(=O)CO)O1 [TACA, triamcinolone acetonide] | mid-potency | potency class of TACA with SNO3, PG and IPM (volar forearms [1]): high potency steroid; potency class of TACA with SNO3, PG and IPM (volar forearms [2]; inclusion of SNO3, PG and IPM): high potency; TACA concentration needed for high potency in comparison to Kenalog cream (0.1% TACA) (volar forearms [2]; with SNO3, PG and IPM): three fold lower; penetration through the entire skin thickness (extent) [3]: only a small amount
C[C@]12CCC(=O)C=C1CC[C@@H]1[C@@H]2[C@@H](O)C[C@@]2(C)[C@H]1CC[C@]2(O)C(=O)CO [hydrocortisone] | low potency | –
C[C@]12C=CC(=O)C=C1CC[C@@H]1[C@@H]2[C@@H](O)C[C@@]2(C)[C@H]1CC[C@]2(O)C(=O)CO [prednisolone] | low potency | –
C[C@H]1C[C@H]2[C@@H]3CCC4=CC(=O)C=C[C@]4(C)[C@@]3(F)[C@@H](O)C[C@]2(C)[C@@]1(O)C(=O)CCl [clobetasol] | ultra high potency | –
C[C@H]1C[C@@H]2[C@H]([C@@H](O)C[C@@]3(C)[C@H]2CC[C@]3(O)C(=O)CO)[C@@]2(C)C=CC(=O)C=C12 [methylprednisolone] | low potency | –
C[C@H]1C[C@H]2[C@@H]3CCC4=CC(=O)C=C[C@]4(C)[C@@]3(F)[C@@H](O)C[C@]2(C)[C@@]1(O)C(=O)CO [betamethasone] | high potency | –
